pEC50, pIC50: −log10 of the molar value.
How the values were obtained:
[1] = Oral bioavailability in Sprague-Dawley rat at 10 mg/kg measured upto 24 hrs by LC-MS/MS analysis; type: ADME, organism-based; conditions: in vivo
[2] = Fold resistance, ratio of EC50 for antiviral activity against drug-resistant HIV-1 E138K mutant infected in human MT4 cells to EC50 for antiviral activity against […] HIV-1 infected in human MT4 cells; type: functional
[3] = MRT (0 to infinity) in Sprague-Dawley rat at 10 mg/kg,po measured upto 24 hrs by LC-MS/MS analysis; type: ADME, organism-based; conditions: in vivo
[4] = AUC (0 to t) in Sprague-Dawley rat at 1 mg/kg,iv measured upto 24 hrs by LC-MS/MS analysis; type: ADME, organism-based; parameters: dose 1 mg/kg, time < 24 hrs, route iv; conditions: in vivo
[5] = Apparent volume of distribution in Sprague-Dawley rat at 10 mg/kg,po measured upto 24 hrs by LC-MS/MS analysis; type: ADME, organism-based; conditions: in vivo
[6] = Selectivity index, ratio of CC50 for human MT4 cells to EC50 for antiviral activity against NNRTI resistant HIV-1 infected in human MT4 cells; type: toxicity, cell-based; conditions: read-out: Ratio CC50/EC50
[7] = test system: Human immunodeficiency virus 1; assay: Antiviral activity against drug-resistant HIV-1 K103 N mutant infected in human MT4 cells assessed as reduction in virus-induced cytopathic effect incubated for 5 days by MTT assay; type: functional, organism-based; conditions: Human immunodeficiency virus 1, K103 N mutant, MT4, 120 h
[8] = Acute toxicity in healthy mouse assessed as liver damage at 1 g/Kg,IG monitored for 2 weeks by HE staining based assay; type: tissue-based; conditions: in vivo, po, 1000 mg/kg, 336 h
[9] = Apparent volume of distribution in Sprague-Dawley rat at 1 mg/kg,iv measured upto 24 hrs by LC-MS/MS analysis; type: ADME, organism-based; conditions: in vivo, read-out: Vz
[10] = MRT(0 to t) in Sprague-Dawley rat at 1 mg/kg,iv measured upto 24 hrs by LC-MS/MS analysis; type: ADME, organism-based; conditions: in vivo
[11] = test system: Human immunodeficiency virus 1; assay: Antiviral activity against drug-resistant HIV-1 Y181C mutant infected in human MT4 cells assessed as reduction in virus-induced cytopathic effect incubated for 5 days by MTT assay; type: functional, organism-based; conditions: Human immunodeficiency virus 1, Y181C mutant, MT4, 120 h
[12] = Fold resistance, ratio of EC50 for antiviral activity against drug-resistant HIV-1 K103 N mutant infected in human MT4 cells to EC50 for antiviral activity against […] HIV-1 infected in human MT4 cells; type: functional
[13] = Cmax in Sprague-Dawley rat at 10 mg/kg,po measured upto 24 hrs by LC-MS/MS analysis; type: ADME, organism-based; parameters: dose 10 mg/kg, time < 24 hrs, route po; conditions: in vivo
[14] = Acute toxicity in healthy mouse assessed as lung damage at 1 g/Kg,IG monitored for 2 weeks by HE staining based assay; type: tissue-based; conditions: in vivo, po, 1000 mg/kg, 336 h
[15] = test system: Human immunodeficiency virus 1; assay: Antiviral activity against drug-resistant HIV-1 E138K mutant infected in human MT4 cells assessed as reduction in virus-induced cytopathic effect incubated for 5 days by MTT assay; type: functional, organism-based; conditions: Human immunodeficiency virus 1, E138K mutant, MT4, 120 h
[16] = Clearance in Sprague-Dawley rat at 1 mg/kg,iv measured upto 24 hrs by LC-MS/MS analysis; type: ADME, organism-based; conditions: in vivo
Cytochrome P450 2D6 = Cytochrome P450 2D6 (Homo sapiens, UniProt P10635); assay: Inhibition of CYP2D6 in human liver microsomes using dextromethorphan as substrate incubated for 15 to 40 mins in presence of NADPH; type: ADME, Microsome
Sequence of Cytochrome P450 2D6 (P10635 whole entry): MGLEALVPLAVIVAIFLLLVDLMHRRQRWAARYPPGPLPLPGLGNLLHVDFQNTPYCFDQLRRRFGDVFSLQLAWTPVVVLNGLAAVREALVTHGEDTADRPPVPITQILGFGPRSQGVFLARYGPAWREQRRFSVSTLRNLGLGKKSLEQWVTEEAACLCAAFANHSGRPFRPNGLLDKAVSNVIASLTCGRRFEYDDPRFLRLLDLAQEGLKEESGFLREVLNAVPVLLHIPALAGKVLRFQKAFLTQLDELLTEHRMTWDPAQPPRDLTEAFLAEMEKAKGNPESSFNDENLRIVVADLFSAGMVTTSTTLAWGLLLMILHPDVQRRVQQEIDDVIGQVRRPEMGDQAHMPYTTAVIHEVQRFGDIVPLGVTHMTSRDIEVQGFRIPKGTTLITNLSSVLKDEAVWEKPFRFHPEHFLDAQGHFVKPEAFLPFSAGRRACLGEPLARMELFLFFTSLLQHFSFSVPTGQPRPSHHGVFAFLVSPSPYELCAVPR

SMILES: Cc1c(C(C#N)c2c(F)cccc2F)nc(SC(C)C)[nH]c1=O (configuration not stated)
- F [1]: 164%
- Ratio EC50 [2]: 2
- MRT inf [3]: 6.82 h
- AUC(0-t) at 24 h [4]: 8.28 µg·h/mL
- Vz [5]: 0.47537 L/kg
- selectivity ratio [6]: 6560
- pEC50 [7]: 5.47
- Activity [8]: Non-Toxic
- Vd [9]: 0.764 L/kg
- MRT last at 24 h [10]: 2.25 h
- pEC50 [11]: 6.12
- Ratio EC50 [12]: 163
- Cmax [13]: 15.3 µg/mL
- Activity [14]: Non-Toxic
- pEC50 [15]: 7.30
- clearance [16]: 0.128 L/h/kg
- pIC50 (Cytochrome P450 2D6): < 4.30

Source: ChEMBL document CHEMBL5137044, “Expansion of the S-CN-DABO scaffold to exploit the impact on inhibitory activities against the non-nucleoside HIV-1 reverse transcriptase” (Eur J Med Chem, 2022)
